Results published in ChEMBL document CHEMBL1144145, “Sesquiterpene polyol esters from the leaves of maytenus macrocarpa” (J Nat Prod, 1999).

Assays:
Assay type in all cases: functional, cell-based
P388 = experiment: Cytotoxicity against mouse P388 cells by […]
A549 = experiment: Cytotoxicity against human A549 cells by […]
HT-29 = experiment: Cytotoxicity against human HT-29 cells by […]
[1] = Cytotoxicity against human MEL28 cells by […]; details: SK-MEL-28

Measured: IC50

CC(=O)OC[C@@]12[C@@H](OC(=O)c3ccccc3)CC[C@](C)(O)[C@]13OC(C)(C)[C@H]([C@H](OC(C)=O)[C@H]2OC(=O)c1ccccc1)[C@H]3OC(C)=O
> 25 µg/mL: all assays above
